Data on two molecules can be found in patent US20240360194A1, “New Peptides as Potent and Selective GIP Receptor Agonists” (Sanofi, priority 2021, published 2024).

Numbered stars: 1 amine (or outer) side, 2 acyl side, 3 side chain; on linkers, the order of the positions; unused ones are H or OH. Square brackets hold non-standard residues; d marks the D form. Side chains are listed from the residue outwards. Peptide text beside a SMILES is read from it. * marks the point of attachment. C18 diacid = O=C(O)CCCCCCCCCCCCCCCCC(=O)*; γGlu = O=C(O)[C@H](CCC(=O)[*:2])N[*:1]; AEEA = NCCOCCOCC(=O)O; Aib = CC(C)(N)C(=O)O

A word on the EC50: it is the concentration needed to bring the measured effect to its halfway point. What is called Emax is the size of the effect at its maximum, as opposed to the concentration needed. As a reminder, the IC50 is the concentration needed to halve the response being measured. Usually AUC(0-t) stands for the area under the concentration-time curve up to a stated or last time point. A higher AUC(0-t) goes with high exposure. By Cmax is commonly meant the maximum level reached in the sampled fluid or tissue. In general, clearance refers to the volume of plasma or blood freed of the substance per unit of time. High values mean efficient removal, low ones inefficient removal. By half-life is commonly meant how long it takes for the measured level to halve. The low end stands for rapid decline, the high end for slow decline. In general, bioavailability refers to dose-corrected exposure relative to a reference, in per cent. Read a high bioavailability as good availability.

Data set [1] deals with human GLP-1 receptor (hGLP-1R) (Homo sapiens, UniProt P43220). The data set can be described thus: In vitro cellular cAMP assay for GLP-1 receptor efficacy (HEK-293 cell line over-expressing receptor). It is filed as cell-based. Particulars: HEK-293, 0.1% BSA. In general terms: Changes in cAMP serve as a functional read-out for many G protein-coupled receptors.
Data set [2] has as its target T1, human GIP receptor (Homo sapiens, UniProt P48546).
T1 construct: human adipocytes endogenously expressing the human GIP receptor; host or cells: human preadipocytes (Lonza) differentiated to adipocytes
T1 sequence (P48546 22-466): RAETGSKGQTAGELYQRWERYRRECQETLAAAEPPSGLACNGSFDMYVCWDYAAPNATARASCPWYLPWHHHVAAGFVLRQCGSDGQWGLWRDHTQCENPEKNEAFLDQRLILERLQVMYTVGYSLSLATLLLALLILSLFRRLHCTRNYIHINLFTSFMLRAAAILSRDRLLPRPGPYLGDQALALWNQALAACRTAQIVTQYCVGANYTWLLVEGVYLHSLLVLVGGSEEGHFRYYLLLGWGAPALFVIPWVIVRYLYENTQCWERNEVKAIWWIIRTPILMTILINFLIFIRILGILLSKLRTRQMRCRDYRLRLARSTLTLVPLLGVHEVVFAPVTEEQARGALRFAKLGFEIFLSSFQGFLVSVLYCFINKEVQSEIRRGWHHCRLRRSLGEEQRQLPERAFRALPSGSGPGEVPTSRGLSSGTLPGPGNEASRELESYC
Put plainly: In vitro cellular cAMP assay for GIP receptor efficacy (human adipocytes). It is filed as cell-based. The following applies: for Emax: read-out: hGIPR Emax. Summed up: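 cAMP is read by HTRF (665/620 nm ratio, 1 h after reagents in lysis buffer) following 30 min compound exposure at room temperature. Cells are human preadipocyte-derived adipocytes, differentiated 6 days with insulin, dexamethasone, IBMX (200 μM), PPARγ agonist and L-thyroxine, seeded 5000 per well.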

For data set [3], the target named is T2, human GIP receptor (hGIPR) (Homo sapiens, UniProt P48546).
T2 sequence (P48546 22-466): T1 sequence (P48546 22-466)
Put plainly: Binding assay, displacement of [125I]GIP from HEK-293 membranes over-expressing GIPR (SPA). Particulars: [125I]GIP displacement. Summed up:
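Membranes from HEK-293 cells over-expressing human GIPR or GLP-1R, isolated by homogenising, sonicating and ultracentrifuging at 100000×g into HEPES/EDTA/NaCl buffer with protease inhibitors, were used for binding.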
(Loss of bound radioactivity is the signal in a displacement assay; it reports binding, not function.)

The nature of data set [4]: Pharmacokinetic evaluation in rats. It is filed as in vivo. Particulars: male, SD, rat, in vivo. How it is done: Compounds were administered in a suitable buffer system, e.g. PBS buffer solution at pH7.4 or DPBS solution at concentrations of 0.05, 0.1, 0.5 or 1 mg/ml depending on dose, species and administration volume. Male SD rats were dosed 0.25 mg/kg, 0.5 mg/kg or 1 mg/kg intravenously (i.v.) or subcutaneously (s.c.). Blood samples were collected after 0.08, 0.25, 0.5, 1, 2, 4, 8, 24, 32, and 48 h post i.v. application and 0.25, 0.5, 1, 2, 4, 8, 24, 32, and 48 h post s.c. application, respectively. Plasma samples were analysed after protein precipitation via liquid chromatography mass spectrometry (LC/MS). PK parameters and half-life were calculated using Phoenix-WinNonlin 8.1 using a non-compartmental model and linear trapezoidal interpolation calculation. Pharmacokinetic profiles were determined as described in Methods.

human GLP-1 receptor (hGLP-1R), sequence (P43220 24-463): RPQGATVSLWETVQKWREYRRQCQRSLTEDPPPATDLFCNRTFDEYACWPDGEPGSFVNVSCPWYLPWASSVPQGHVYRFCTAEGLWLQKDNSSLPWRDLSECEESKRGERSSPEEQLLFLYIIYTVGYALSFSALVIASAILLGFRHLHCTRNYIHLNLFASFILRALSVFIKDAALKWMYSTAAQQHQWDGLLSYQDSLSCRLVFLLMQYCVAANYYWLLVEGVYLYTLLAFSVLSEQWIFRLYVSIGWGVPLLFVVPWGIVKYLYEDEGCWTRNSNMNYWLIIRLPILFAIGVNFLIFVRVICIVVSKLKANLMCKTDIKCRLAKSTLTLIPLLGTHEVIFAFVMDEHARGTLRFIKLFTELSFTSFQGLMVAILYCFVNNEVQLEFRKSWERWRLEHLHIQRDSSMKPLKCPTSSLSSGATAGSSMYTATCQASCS

As for `CC[C@H](C)[C@H](NC(=O)[C@H](Cc1ccccc1)NC(=O)[C@H](CCC(=O)O)NC(=O)C(C)(C)NC(=O)[C@H](CCC(N)=O)NC(=O)[C@H](Cc1c[nH]cn1)NC(=O)C(C)(C)NC(=O)[C@H](CCCNC(=N)N)NC(=O)[C@H](CC(=O)O)NC(=O)[C@H](CCCCNC(=O)COCCOCCNC(=O)COCCOCCNC(=O)CC[C@H](NC(=O)CCCCCCCCCCCCCCCCC(=O)O)C(=O)O)NC(=O)C(C)(C)NC(=O)[C@@H](NC(=O)[C@H](CO)NC(=O)[C@H](CC(C)C)NC(=O)[C@H](CC(=O)O)NC(=O)[C@H](CO)NC(=O)[C@@H](NC(=O)[C@H](Cc1ccccc1)NC(=O)[C@@H](NC(=O)CNC(=O)[C@H](CCC(=O)O)NC(=O)C(C)(C)NC(=O)[C@@H](N)Cc1ccc(O)cc1)[C@@H](C)O)[C@@H](C)CC)[C@@H](C)CC)C(=O)N[C@@H](CCC(=O)O)C(=O)N[C@@H](Cc1c[nH]c2ccccc12)C(=O)N[C@@H](CC(C)C)C(=O)N[C@@H](CC(C)C)C(=O)N[C@@H](C)C(=O)N[C@@H](CCC(N)=O)C(=O)N[C@@H](CCCNC(=N)N)C(=O)N1CCC[C@H]1C(=O)N[C@@H](CO)C(=O)N[C@@H](CO)C(=O)NCC(=O)N[C@@H](C)C(=O)N1CCC[C@H]1C(=O)N1CCC[C@H]1C(=O)N1CCC[C@H]1C(=O)N[C@@H](CO)C(N)=O` [SEQ ID NO: 22, H2N-Y-Aib-E-G-T-F-I-S-D-L-S-I-Aib-K[{AEEA}2-gGlu-C18OH]-D-R-Aib-H-Q-Aib-E-F-I-E-W-L-L-A-Q-R-P-S-S-G-A-P-P-P-S-NH2] (H-Y[Aib]EGTFISDLSI[Aib]K([AEEA-AEEA-γGlu-C18 diacid])DR[Aib]HQ[Aib]EFIEWLLAQRPSSGAPPPS-NH2), the EC50 in data set [1] is more than 10 nM. Moreover, the EC50 in data set [2] (read-out: hGIPR EC50) came out at 0.6 nM. For the same molecule, the Emax in data set [2] worked out at 98%. This molecule also displayed an IC50 in data set [3] of 1 nM. In data set [4] (iv, 0.25 mg/kg), the AUC(0-t) is 40200 ng·h/mL, the Cmax is 6030 ng/mL, the clearance is 0.0955 mL/min/kg and the half-life is 13.6 h. In data set [4] (sc, 0.5 mg/kg), the AUC(0-t) worked out at 49900 ng·h/mL, the highest level (Cmax) was 1320 ng/mL, the bioavailability was found to be 69% and the half-life was 15.5 h.
Regarding `CC[C@H](C)[C@H](NC(=O)[C@H](CCCNC(=N)N)NC(=O)[C@H](CCC(=O)O)NC(=O)[C@H](CCCCNC(=O)COCCOCCNC(=O)COCCOCCNC(=O)CC[C@H](NC(=O)CCCCCCCCCCCCCCCCC(=O)O)C(=O)O)NC(=O)C(C)(C)NC(=O)[C@@H](NC(=O)[C@H](CO)NC(=O)[C@H](CC(C)C)NC(=O)[C@H](CC(=O)O)NC(=O)[C@H](CO)NC(=O)[C@@H](NC(=O)[C@H](Cc1ccccc1)NC(=O)[C@@H](NC(=O)CNC(=O)[C@H](CCC(=O)O)NC(=O)C(C)(C)NC(=O)[C@@H](N)Cc1ccc(O)cc1)[C@@H](C)O)[C@@H](C)CC)[C@@H](C)CC)C(=O)N[C@@H](Cc1c[nH]cn1)C(=O)N[C@@H](CCC(N)=O)C(=O)NC(C)(C)C(=O)N[C@@H](CCC(=O)O)C(=O)N[C@@H](Cc1ccccc1)C(=O)N[C@H](C(=O)N[C@@H](CCC(=O)O)C(=O)N[C@@H](Cc1c[nH]c2ccccc12)C(=O)N[C@@H](CC(C)C)C(=O)N[C@@H](CC(C)C)C(=O)N[C@@H](C)C(=O)N[C@@H](CCC(N)=O)C(=O)NCC(=O)N1CCC[C@H]1C(=O)N[C@@H](CO)C(=O)N[C@@H](CO)C(=O)NCC(=O)N[C@@H](C)C(=O)N1CCC[C@H]1C(=O)N1CCC[C@H]1C(=O)N1CCC[C@H]1C(=O)N[C@@H](CO)C(N)=O)[C@@H](C)CC` [SEQ ID NO: 21, H2N-Y-Aib-E-G-T-F-I-S-D-L-S-I-Aib-K[{AEEA}2-gGlu-C18OH]-E-R-I-H-Q-Aib-E-F-I-E-W-L-L-A-Q-G-P-S-S-G-A-P-P-P-S-NH2] (H-Y[Aib]EGTFISDLSI[Aib]K([AEEA-AEEA-γGlu-C18 diacid])ERIHQ[Aib]EFIEWLLAQGPSSGAPPPS-NH2), the EC50 in data set [1] is more than 10 nM. Besides, in data set [2], the Emax came to 120%. Moreover, the IC50 in data set [3] was 0.8 nM. In data set [4] (iv, 0.25 mg/kg), the AUC(0-t) is 25800 ng·h/mL, the peak level (Cmax) was 1020 ng/mL, the clearance was 0.151 mL/min/kg and the half-life was 12.9 h. Further, in data set [4] (sc, 0.5 mg/kg), the AUC(0-t) was 33900 ng·h/mL, the Cmax was found to be 1020 ng/mL, the bioavailability turned out to be 68% and the half-life is 12.1 h.
